One assay has as its target T1, TNKS2 ARC5 (Homo sapiens, UniProt Q9H2K2).
T1 construct: followed by TNKS2 ARC5 (1 μL, 100 μM stock); His6-GST; made in house; host or cells: E. coli
The assay is described as follows: Differential scanning fluorimetry (DSF, thermal shift). The format is binding. The conditions noted are these: fragment 500 μM. The method, then:
Therefore, we chose TNKS2 ARC5 for screening by DSF, anticipating the largest signal window for measuring changes in Tm upon fragment binding.
We screened 1869 compounds in duplicate at a concentration of 500 μM, which we considered a reasonable compromise between having a sufficiently high concentration to identify weak binders while minimising the likelihood of false positives through fragment precipitation/aggregation and non-specific binding. The final DMSO concentration was 5%. We calculated melting temperatures using both the inflection point and the maximum peak of first derivative data methods. Both methods generally agreed, unless the melt curve was biphasic or misshapen, with slightly lower variability for the […] Tm determination method (see Materials and Methods for experimental and analysis details).
We determined the melting temperature for the unbound ARC (Tm, 0) from the mean of 12 reference melting curves per plate, with 5% DMSO only. We calculated the change in melting temperature (ΔTm) by subtracting the mean Tm, 0 from Tm, compound. We tested compounds in duplicate, defining fragments as hits if they conferred a ΔTm outside two standard deviations (2σ) from the mean, in one or both replicates. To check for consistency between plates, we ran triplicate peptide controls; however, we excluded peptide ΔTm values from the calculation of the mean ΔTm to avoid skewing the results. We observed mean ΔTm values (IP/1st derivative methods) of −0.127/−0.331 °C and σ as 0.997/1.19 °C. A hit cut-off of 2σ gave absolute shifts of +1.87/+2.05 °C for compounds that stabilised and −2.13/−2.71 °C for compounds that destabilised the ARC (Fig. 2B).
For the screen, a C1000 thermal cycler (Bio-Rad) was used to record melt curves. SYPRO Orange was purchased as a 5000 × stock in DMSO from Sigma Aldrich. The ICR fragment library was available as 100 mM stocks in DMSO, and dispensed (25 nL) using an ECHO acoustic liquid handling system into white 384-well PCR plates (Framestar, 4titude). Wells were backfilled with DMSO (225 nL). Buffer (2.75 μL, 25 mM HEPES-NaOH pH 7.5, 100 mM NaCl, 2 mM TCEP) was added, followed by TNKS2 ARC5 (1 μL, 100 μM stock) and then SYPRO orange dye (1 μL, 25×). The plate was centrifuged after the addition of each reagent (1 min, 1000 × g). Final assay concentrations were as follows: TNKS2 ARC5 (20 μM); fragment (500 μM); SYPRO Orange dye (5×); DMSO (5% v/v) in a total volume of 5 μL. Peptide control wells (3BP2 TBM 16-mer, 200 μM, sequence LPHLQRSPPDGQSFRSW with C-terminal tryptophan added for photometric concentration measurements, the N-terminus acetylated and the C-terminus amide-capped) were plated in triplicate, and there were 12 blank wells per plate, with DMSO only (250 nL, 5% v/v). Melt curves were recorded from 20–95 °C, with the temperature ramped by 0.5 °C every 15 s. Data were analysed using Vortex (Dotmatics) software and melting temperatures calculated from both the inflection point and the maximum peak of 1st-derivative data. Data points were excluded if the melt curve was poor, i.e., if there was no fluorescence signal above baseline, high fluorescence intensity throughout, or if the melt curve was shallow (<1000 rfu difference between baseline and peak maximum). The unbound melting temperature was determined from the mean of 12 reference melting curves, with 5% DMSO only. The change in melting temperature (ΔTm) was calculated by subtracting the mean Tm, 0 from Tm, compound. Compounds were tested in duplicate, and fragments were defined as hits if they gave a ΔTm outwith 2 σ from the mean in one or both replicates.
For the experiment shown in Fig. 2A, ARC and 3BP2 TBM peptide concentrations were 20 and 200 μM, respectively, in 50 mM HEPES-NaOH pH 7.5, 100 mM NaCl, 2 mM TCEP and a total volume of 25 μL. SYPRO Orange was added at 5×. Data were recorded from 4–95 °C, with the temperature ramped by 0.5 °C every 15 s, using a CFX384 thermal cycler (Bio-Rad). […]
A general note: Differential scanning fluorimetry follows unfolding on heating by fluorescence.

The next assay has as its target T2, TNKS2 ARC4 (Homo sapiens, UniProt Q9H2K2).
T2 construct: The cell was filled with TNKS2 ARC4 (488–649); His6-GST; made in house; host or cells: E. coli
T2 sequence (Q9H2K2 488-649): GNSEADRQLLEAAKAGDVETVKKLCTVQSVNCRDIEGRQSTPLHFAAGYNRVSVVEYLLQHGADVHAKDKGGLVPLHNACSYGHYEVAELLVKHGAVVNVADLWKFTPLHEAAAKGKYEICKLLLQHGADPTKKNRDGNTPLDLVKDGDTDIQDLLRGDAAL
The experiment in a line: Primary fragment screen by T2 relaxation-edited ligand-observed NMR (cocktails of four). The format is binding. As to conditions: fragments 1 mM each, 35 μM protein. The text has this:
The hit rate for compounds confirmed to bind TNKS2 ARC5 as evaluated by NMR was relatively low, at 0.78%, and only 0.16% for fragments binding TNKS2 ARC4 and 5 competitively with a TBM peptide. Different screening assays often identify distinct hit fragments. There is no consensus on the most appropriate assays to use for fragment screening, especially against challenging targets such as protein-protein interactions. Often several orthogonal methods are used in series to narrow down fragment hits, or a combination of biophysical and biochemical assays to exclude false positives and identify binders that modulate protein activity. We therefore carried out an additional primary screen using T2 relaxation-edited ligand-observed NMR on TNKS2 ARC4, probing a subset of molecules from the ICR fragment library that was compatible with NMR. […]
Data were processed using Bruker Topsin 3.14, then analysed using the MNova Screen software. […] The relative peak intensity change (I) was calculated by Eq. 1 for all peaks in the 5.5–9.5 ppm region, for each compound.1 I=(Iblank−Iprotein)/Iblank
The average percentage change was then calculated, and compounds designated a hit if the signal was reduced by ≥26% (2 σ). […] Protein ^1H spectra of TNKS2 ARC4 (200 μM) were measured at 24 h intervals to ensure protein stability and folding for the duration of the screening experiments.

T1 sequence (Q9H2K2 641-800): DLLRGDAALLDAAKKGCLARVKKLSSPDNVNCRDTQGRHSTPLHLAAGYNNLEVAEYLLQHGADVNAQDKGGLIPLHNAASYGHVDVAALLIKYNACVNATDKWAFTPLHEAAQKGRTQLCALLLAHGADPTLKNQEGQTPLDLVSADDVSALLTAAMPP

With `Nc1nc(Nc2ccccc2)nc2ccccc12` [compound 7], the “hit in DSF primary screen” value at TNKS2 ARC5 is “hits”. Besides, on TNKS2 ARC4, the “hit in NMR primary screen” value is “hits”.

As for `CCOc1cccc(-c2cc(N)[nH]n2)c1` [compound 6], the “hit in DSF primary screen” value at TNKS2 ARC5 is recorded as “hits”. Besides, on TNKS2 ARC4, the “hit in NMR primary screen” value was “hits”.

These data come from paper PMC6911004, “Fragment-based screening identifies molecules targeting the substrate-binding ankyrin repeat domains of tankyrase” (Scientific Reports, 2019).
